According to patent publication US6884776B1, “Antimicrobial peptides derived from ubiquicidine” (priority 1997, dated 2005):
Where no end group is shown, it is not given here.

Key:
[1] = set-up: species or system mice; settings: mouse, in vivo
Experimental: Reference is made to FIG. 11 for a schematic view of the experimental infection and treatment of the mice. In summary, mice-were infected intramuscularly in the right thigh muscle with about 10^6 bacteria and after 5 minutes injected intraperitoneally with about 25 μg (labelled) peptide. At different points in time after injection of the peptide the animals were killed and the right thigh muscle was removed, homogenized, and finally the number of bacteria in the homogenate was determined using microbiological plate techniques, or accumulation of the labelled peptide was determined by means of a γ-camera. This test involved animals which were normal and immunocompromised (injection with cyclophosphamide, “total body” radiation).
(§1) Mice were infected in the right thigh muscle with Klebsiella pneumoniae and 25 μg ^99mTc-labelled ubiquicidine (1-18) or ubiquicidine (18-35) was subsequently injected intraperitoneally. At different points in time after injection of the peptide the amount of activity in the right (test) and left (control) thigh muscle of the mouse was measured using a γ-camera. The results are shown in FIG. 12 as a ratio of the values in the right thigh muscle and the left thigh muscle, i.e. “target to non-target ratio”. For the purpose of comparison the results for human defensin and IgG are also shown. The target to non-target ratios for infections and sterile inflammations were also compared (FIG. 13).

[2] = localization of 99mTc-labelled peptides with γ-camera in mice infected with Staphylococcus aureus or with sterile inflammations; assay type: in vivo; settings: target to non-target ratios, FIG. 13
Experimental: Mice were infected intramuscularly with about 10^6 Staphylococcus aureus bacteria (ATCC 25923) and subsequently injected intraperitoneally with 25 μg ^99mTc-peptide. Mice were also injected intramuscularly with about 1×10^8 heat-killed (1 hour, 100° C.)S. aureus, 1 μg endotoxin or 100 ng phorbol myristate acetate (PMA) in order to cause sterile inflammations. At different points in time after injection of the peptide the radioactivity was measured in the circulation (heart), determined organs (liver, kidney, bladder and spleen) and in both thigh muscles using a γ-camera.
as §1

[3] = in vivo; cited from earlier work
[4] = test system: Klebsiella pneumoniae; test: growth-killing curve determination, 60 minutes at 37° C., CFU; assay type: cell-based
Experimental: (§2) Different techniques were used to test for the antimicrobial activity of ubiquicidine and peptides derived therefrom.
(§3) In the control incubations the bacteria multiplied a number of times (not shown).
(§4) Peptides were prepared using an Abimed AMS multiple peptide synthesizer and a fixed phase (tentagel AC, a polymer of polyethylene glycol spacer linked to a polystyrene matrix) (de Koster et al. (1995) J. Immunol. Methods 187:179-188). After completion of the synthesis the peptide was released from the fixed phase using a trifluoroacetic acid water(19:1) mixture and the peptides were subsequently precipitated with an ether pentane(1:1) mixture at […]. After centrifugation the obtained pep-tides were dried at 40° C. for 15 minutes. The peptides were subsequently dissolved in 10% acetic acid and concentrated by means of vacuum centrifugation. The purity of the peptides was determined using HPLC. The antimicrobial activity of these peptide fragments was determined as described in Example 1 under 2.3.

[5] = test system: Staphylococcus aureus; test: as above; assay type: cell-based
Experimental: as §2, §3, §4

[6] = test system: micro-organisms; test: growth-killing test / in vitro antimicrobial action (IC 99%); assay type: cell-based
Description: Peptide fragments derived from ubiquicidine comprise a preferably continuous series of at least 3, preferably at least 8 amino acids from the amino acid sequence of ubiquicidine as shown in FIG. 1. For an average skilled person it is simple to ascertain whether a peptide fragment with a series of preferably continuous amino acids chosen from the amino acid sequence of ubiquicidine does actually have antimicrobial activity and thus meets the requirements of the invention. A simple standard test for determining antimicrobial activity is for instance the universally known growth-killing test, i.e. determining of the concentration of an antimicrobial agent which kills 99% of the micro-organisms (IC 99%). Designated by “peptide (fragments)” in this application are therefore all amino acid chains which are smaller than the ubiquicidine itself, but the amino acid sequence of which is to be found, preferably continuously, in the ubiquicidine. The length of such peptide (fragments) can vary from 3 to 58 amino acids, wherein possible extra amino acids added as modification are not included.
as §2

^99Tc-ubiquicidine (1-18): ubiquicidine (1-18) labelled with technetium 99m (KVHGSLARAGKVRGQTPK; also: labelled with 99mTc, site not given here; UniProt P62861 75-92, looked up, fragment)
time to maximum accumulation compared with IgG [1]: much sooner than ^99Tc-IgG

99mTc-labelled ubiquicidine 18-35: MAG3-derived ubiquicidine (18-35) labelled with the emitter 99mTc (hybrid molecule) (KVAKQEKKKKKTGRAKRR; also: MAG3 chelator conjugated, site not given here, 99mTc label; UniProt P62861 92-109, looked up, fragment)
time to maximum accumulation compared with IgG [1]: much sooner than ^99Tc-IgG | accumulation in infection versus sterile inflammations [2]: in a nidus but not in inflammations

[67Ga] [gallium 67]
time needed for accumulation [3]: at least 24 hours

KVAKQEKKKKKTGRAKRR [ubiquicidine (18-35)]
accumulation in the infected thigh muscle [1]: accumulate rapidly

ubiquicidine (29-41): synthetic peptide fragment of ubiquicidine, amino acids 29-41, sequence in FIG. 1 (TGRAKRRMQYNRR; Small ribosomal subunit protein eS30; UniProt P62861 103-115, looked up, fragment)
antimicrobial activity of peptide fragments [4]: demonstrated antimicrobial activity | antimicrobial activity of peptide fragments [5]: demonstrated antimicrobial activity | IC 99% (concentration which kills 99% of the micro-organisms) [6]: around 1 μM

KVHGSLARAGKVRGQTPK [ubiquicidine (1-18)]
accumulation in the infected thigh muscle [1]: accumulate rapidly
